# Experimental data from US20200138829A1, “METHODS OF CANCER TREATMENT” (Ferro Therapeutics, Inc., priority 2017, published 2020).
# Assays:
# Panc1 cells [1] = assay: Cell viability assay (CellTiter Glo), Panc1; assay type: cell-based; conditions: Panc1 versus A549
# Protocol: (§1) Cell viability assay was performed to assess the potency of the ferroptosis inducer compounds in various cancer cell lines with K-Ras mutations. […] A series of 9 different concentrations of compound stocks (500×) were created by 3-fold serial dilution in DMSO. […] After 96 hours of incubation, 50 μL of CellTiter Glo reagent (Promega) was added to each well and luminescence was measured after 10 minutes using EnVision (PerkinElmer). […] IC50, relative IC50, or % of top inhibition was calculated. Next, RSL3, ML210, Erastin, and Auranofin were tested on additional K-RAS mutant pancreatic cell lines (Panc1, Panc6.03, Panc2.13, PSN-1, and Capan-1) in Table 1.
# PSN-1 cells [2] = assay: Cell viability assay (CellTiter Glo), PSN-1; assay type: cell-based; conditions: PSN-1 versus A549
# Protocol: as §1
# [3] = test system: B cell lymphoma cell lines Mino and Namalwa; assay: Cell viability assay, B cell lymphoma cell lines compared with A549; assay type: cell-based; conditions: Mino and Namalwa versus A549
# Protocol: Cell viability assay was performed to assess the potency of the ferroptosis inducer compounds in various cancer cell lines with K-Ras mutations. […] A series of 9 different concentrations of compound stocks (500×) were created by 3-fold serial dilution in DMSO. […] After 96 hours of incubation, 50 μL of CellTiter Glo reagent (Promega) was added to each well and luminescence was measured after 10 minutes using EnVision (PerkinElmer). […] […] IC50, relative IC50, or % of top inhibition was calculated.
# A549 cells [4] = assay: Combination proliferation assay with PKC activator, A549; assay type: cell-based; conditions: inducer at concentration with minimal or no effect alone
# Protocol: (§2) Cell viability assay was performed to assess the potency of the ferroptosis inducer compounds in various cancer cell lines with K-Ras mutations. Cells at a density of 1,000-10,000 cells/well were seeded in 96-well plates and incubated at 37° C. overnight. A series of 9 different concentrations of compound stocks (500×) were created by 3-fold serial dilution in DMSO. These compounds were further diluted in culture media and then added to cells so that the final DMSO concentration was equal to 0.25% or less. After 96 hours of incubation, 50 μL of CellTiter Glo reagent (Promega) was added to each well and luminescence was measured after 10 minutes using EnVision (PerkinElmer). K101A (a PKC activator) was used as the reference compound titrated from top concentration of 30 μM. All compounds were tested initially from 30 μM as the top concentration in duplicates (range of 4.6 nM-30 μM). […] Data was analyzed using XL-fit software (ID Business Solutions Ltd.). IC50, relative IC50, or % of top inhibition was calculated.
# (§3) Therefore, whether PKC activators synergize or antagonize with ferroptosis inducers can be tested empirically.
# Panc1 cells [5] = assay: Combination proliferation assay with PKC activator, Panc1; assay type: cell-based; conditions: inducer up to 1 μM
# Protocol: as §2, §3
# Panc2.13 cells = assay: Combination proliferation assay with PKC activator, Panc2.13; assay type: cell-based
# Protocol: as §2, §3
# PSN-1 cells [6] = assay: Combination proliferation assay with PKC activator, PSN-1; assay type: cell-based
# Protocol: as §2, §3
# Capan-1 cells = assay: Combination proliferation assay with PKC activator, Capan-1; assay type: cell-based
# Protocol: as §2, §3
# KP-4 cells [7] = assay: Combination proliferation assay with PKC activator, KP-4; assay type: cell-based
# Protocol: as §2, §3
# KP-4 cells [8] = assay: Effect of ferroptosis or apoptosis inhibitor on RSL3- or Erastin-induced cell death, KP-4; conditions: Homo sapiens, KP-4, read-out: reduction of cell viability compared to DMSO
# Protocol: as §2
# Ferroptosis inhibitors include: Ferrostatin-1 and Liproxstatin-1, inhibitors of ROS accumulation; Deferoxamine, an iron chelator; and PD146176, a 15-lipoxygenase inhibitor (see, e.g., Hofman et al., 2016, J Med Chem. March 10; 59(5):2041-53; Yang et al., 2016 Cell 26(3):165-176). The apoptosis inhibitor chosen was ZVAD (see, e.g. Wu et al., 2011, Cell Death and Differentiation 18:26-37). Ferroptosis inhibitors and ZVAD were first titrated as a single agent as shown in Example 1.
# A549 cells [9] = assay: Effect of ferroptosis or apoptosis inhibitor on RSL3- or Erastin-induced cell death, A549; conditions: Homo sapiens, A549, read-out: reduction of cell viability compared to DMSO
# Protocol: as §2
# Ferroptosis inhibitors include: Ferrostatin-1 and Liproxstatin-1, inhibitors of ROS accumulation; Deferoxamine, an iron chelator; and PD146176, a 15-lipoxygenase inhibitor (see, e.g., Hofman et al., 2016, J Med Chem. March 10; 59(5):2041-53; Yang et al., 2016 Cell 26(3):165-176). […]
smiles,measurement,setting,value
CCOc1ccccc1-n1c(C(C)N2CCN(C(=O)COc3ccc(Cl)cc3)CC2)nc2ccccc2c1=O (stereo not drawn) [Erastin],selectivity for induced cell death in comparison to A549,Panc1 cells [1],~2 fold
same,selectivity/sensitivity for induced cell death in comparison to A549,PSN-1 cells [2],~2 fold
same,sensitivity to induced cell death in comparison to A549,[3],not more sensitive
same,synergy with K101A or K102 to block proliferation,A549 cells [4],synergized strongly
same,synergy with K101A or K102 to block proliferation,Panc1 cells [5],No synergistic effects
same,effect on the potency of K101A or K102,Panc2.13 cells,only increased the potency
same,synergy with K101A or K102 to block proliferation,Panc2.13 cells,synergized
same,synergy with K101A (PKC activators) to block proliferation,PSN-1 cells [6],synergized
same,synergy with K101A or K102 to block proliferation,Capan-1 cells,did not synergize
same,synergy when combined with K101A or K102,KP-4 cells [7],only additive effects
same,cytotoxicity at 1 µM,KP-4 cells [8],> 90%
same,cytotoxicity at 10 µM,A549 cells [9],50 to 60%
